# From PMC12155096 (International Journal of Molecular Sciences, 2025)
# Where a name gives a salt, the structure may show the parent alone. Read-outs that look alike come from different tables or passages of the source.
# Tests used:
# [1] = target: Photinus pyralis (firefly) luciferase (Photinus pyralis, UniProt P08659); assay: biochemical; type: biochemical
# [2] = target: T1, human CYP1A2 (Homo sapiens, UniProt P05177); details: for CYP1A2 Efficacy (in parenthesis): human
# T1 sequence (P05177 1-516): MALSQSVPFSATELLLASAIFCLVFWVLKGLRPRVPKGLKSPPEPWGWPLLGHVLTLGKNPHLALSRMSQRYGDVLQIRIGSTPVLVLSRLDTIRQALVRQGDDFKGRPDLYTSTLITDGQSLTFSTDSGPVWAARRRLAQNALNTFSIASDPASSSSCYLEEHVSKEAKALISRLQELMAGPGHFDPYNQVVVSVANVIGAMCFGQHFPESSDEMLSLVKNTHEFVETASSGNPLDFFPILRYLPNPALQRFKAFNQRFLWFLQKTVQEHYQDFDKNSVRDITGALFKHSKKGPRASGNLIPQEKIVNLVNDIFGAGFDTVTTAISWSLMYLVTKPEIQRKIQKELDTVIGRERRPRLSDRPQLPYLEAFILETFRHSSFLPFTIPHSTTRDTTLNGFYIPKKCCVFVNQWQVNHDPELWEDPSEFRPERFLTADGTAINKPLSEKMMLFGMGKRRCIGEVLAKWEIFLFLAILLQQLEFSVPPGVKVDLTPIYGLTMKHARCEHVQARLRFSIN
# [3] = target: T2, human CYP2C9 (Homo sapiens, UniProt P11712); details: for CYP2C9 Efficacy (in parenthesis): human
# T2 sequence (P11712 whole entry): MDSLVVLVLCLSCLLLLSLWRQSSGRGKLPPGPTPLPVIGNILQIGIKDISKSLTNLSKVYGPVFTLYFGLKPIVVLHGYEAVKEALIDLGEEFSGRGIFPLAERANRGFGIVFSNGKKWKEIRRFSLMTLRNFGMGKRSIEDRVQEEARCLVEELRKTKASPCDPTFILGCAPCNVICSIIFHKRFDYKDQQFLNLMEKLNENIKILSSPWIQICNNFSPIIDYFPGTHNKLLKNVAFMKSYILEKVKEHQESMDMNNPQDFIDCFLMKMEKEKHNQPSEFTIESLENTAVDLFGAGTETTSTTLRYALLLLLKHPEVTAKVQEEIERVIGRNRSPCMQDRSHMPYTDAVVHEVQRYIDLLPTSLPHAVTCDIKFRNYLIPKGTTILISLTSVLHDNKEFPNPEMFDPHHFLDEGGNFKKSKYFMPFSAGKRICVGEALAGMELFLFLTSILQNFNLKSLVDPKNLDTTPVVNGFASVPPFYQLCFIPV
# [4] = target: T3, human CYP2C19 (Homo sapiens, UniProt P33261); details: for CYP2C19 Efficacy (in parenthesis): human
# T3 sequence (P33261 whole entry): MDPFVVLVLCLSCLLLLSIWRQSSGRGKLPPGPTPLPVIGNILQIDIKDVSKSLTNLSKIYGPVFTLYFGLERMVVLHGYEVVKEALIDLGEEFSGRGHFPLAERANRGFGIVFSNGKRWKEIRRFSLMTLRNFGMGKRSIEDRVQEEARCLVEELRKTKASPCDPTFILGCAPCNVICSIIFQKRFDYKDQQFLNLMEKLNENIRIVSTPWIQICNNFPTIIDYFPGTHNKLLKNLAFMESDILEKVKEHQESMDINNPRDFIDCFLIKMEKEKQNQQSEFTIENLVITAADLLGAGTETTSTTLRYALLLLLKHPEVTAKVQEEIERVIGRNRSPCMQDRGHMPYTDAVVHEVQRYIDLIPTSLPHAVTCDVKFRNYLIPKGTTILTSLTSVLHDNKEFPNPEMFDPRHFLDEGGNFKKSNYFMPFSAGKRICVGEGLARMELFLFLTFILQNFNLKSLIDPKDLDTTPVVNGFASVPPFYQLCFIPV
# [5] = target: T4, human CYP2D6 (Homo sapiens, UniProt P10635); details: for CYP2D6 Efficacy (in parenthesis): human
# T4 sequence (P10635 whole entry): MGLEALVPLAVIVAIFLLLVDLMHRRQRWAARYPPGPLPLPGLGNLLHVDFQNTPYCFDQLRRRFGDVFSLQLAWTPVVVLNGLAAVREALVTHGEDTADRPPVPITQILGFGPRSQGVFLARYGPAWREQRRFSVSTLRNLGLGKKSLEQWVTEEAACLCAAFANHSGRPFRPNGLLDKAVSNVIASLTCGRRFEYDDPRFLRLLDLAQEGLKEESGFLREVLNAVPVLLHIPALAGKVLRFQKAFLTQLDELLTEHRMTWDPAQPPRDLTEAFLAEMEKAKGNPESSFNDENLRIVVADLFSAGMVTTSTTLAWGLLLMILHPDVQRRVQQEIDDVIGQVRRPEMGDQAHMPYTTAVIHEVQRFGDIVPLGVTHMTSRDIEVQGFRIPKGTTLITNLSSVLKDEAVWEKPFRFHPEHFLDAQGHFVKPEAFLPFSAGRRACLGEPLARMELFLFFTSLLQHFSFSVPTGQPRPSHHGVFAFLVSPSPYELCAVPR
# [6] = target: T5, CYP3A4 (Homo sapiens, UniProt P08684)
# T5 sequence (P08684 whole entry): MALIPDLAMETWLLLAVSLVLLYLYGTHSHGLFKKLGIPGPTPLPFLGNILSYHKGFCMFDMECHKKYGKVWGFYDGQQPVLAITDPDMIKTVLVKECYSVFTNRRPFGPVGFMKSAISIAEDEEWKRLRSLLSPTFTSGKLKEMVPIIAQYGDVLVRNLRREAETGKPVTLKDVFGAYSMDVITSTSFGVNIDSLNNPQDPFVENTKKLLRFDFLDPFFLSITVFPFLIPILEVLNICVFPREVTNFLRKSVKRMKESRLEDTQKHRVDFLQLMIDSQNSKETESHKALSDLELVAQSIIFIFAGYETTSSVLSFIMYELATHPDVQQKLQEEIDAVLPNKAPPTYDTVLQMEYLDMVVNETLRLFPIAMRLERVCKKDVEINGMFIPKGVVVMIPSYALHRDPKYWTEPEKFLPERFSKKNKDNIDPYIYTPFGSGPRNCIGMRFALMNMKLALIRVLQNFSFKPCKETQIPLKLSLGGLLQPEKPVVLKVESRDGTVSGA
# [7] = target: T1, human CYP1A2; assay: biochemical
# [8] = target: T3, human CYP2C19; assay: biochemical
# [9] = target: T4, human CYP2D6; assay: biochemical
# [10] = target: T2, human CYP2C9; assay: biochemical; details: for IC50: CYP2C9 IC50 (half-maximal inhibitory concentration)
# [11] = target: T5, CYP3A4; assay: biochemical
# [12] = CYP1A2 IC50 (half-maximal inhibitory concentration)
# [13] = CYP2C19 IC50 (half-maximal inhibitory concentration)
# [14] = CYP2D6 IC50 (half-maximal inhibitory concentration)
# [15] = CYP2C9 AC50 (half-maximal activity concentration)
# [16] = CYP3A4 AC50 (half-maximal activity concentration)
# Chain of Photinus pyralis (firefly) luciferase (P08659 whole entry): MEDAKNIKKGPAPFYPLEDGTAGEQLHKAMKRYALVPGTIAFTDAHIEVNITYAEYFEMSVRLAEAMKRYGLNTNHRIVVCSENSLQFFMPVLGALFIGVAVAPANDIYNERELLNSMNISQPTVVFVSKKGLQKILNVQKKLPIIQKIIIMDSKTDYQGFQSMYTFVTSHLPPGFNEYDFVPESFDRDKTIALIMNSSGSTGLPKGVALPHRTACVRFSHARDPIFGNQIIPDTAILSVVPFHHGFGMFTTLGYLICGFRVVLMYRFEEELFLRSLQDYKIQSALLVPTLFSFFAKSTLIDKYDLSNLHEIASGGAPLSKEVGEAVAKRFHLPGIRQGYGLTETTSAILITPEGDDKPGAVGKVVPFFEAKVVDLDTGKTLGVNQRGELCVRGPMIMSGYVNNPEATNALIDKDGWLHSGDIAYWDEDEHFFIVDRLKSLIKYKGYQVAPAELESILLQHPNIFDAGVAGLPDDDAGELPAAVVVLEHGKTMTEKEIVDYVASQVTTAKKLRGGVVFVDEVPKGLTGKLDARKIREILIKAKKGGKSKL
smiles,measurement,setting,value
O=[N+]([O-])c1ccc2ccc3cccc4ccc1c2c34 [1-Nitropyrene],Luciferase IC50 (half-maximal inhibitory concentration),[1],Inactive
same,CYP1A2 Efficacy (in parenthesis),[2],0.27 ± 0.05 (-96 ± 5) %
same,CYP2C9 IC50 (half-maximal inhibitory concentration),[3],Inactive
same,CYP2C19 Efficacy (in parenthesis),[4],14.04 ± 11.88 (-69 ± 19) %
same,CYP2D6 Efficacy (in parenthesis),[5],33 ± 2.23 (-91 ± 22) %
same,CYP3A4 IC50 (half-maximal inhibitory concentration),[6],Inactive
same,IC50,[7]; [12],0.27 µM
same,IC50,[8]; [13],14 µM
same,IC50,[9]; [14],33 µM
"Clc1ccccc1-c1ccccc1Cl [2,2'-Dichlorobiphenyl]",CYP1A2 AC50 (half-maximal activity concentration),[2],Inconclusive inhibitor
same,CYP2C19 AC50 (half-maximal activity concentration),[4],Inconclusive activator
same,CYP2D6 AC50 (half-maximal activity concentration),[5],Inactive
same,AC50,[10]; [15],39 µM
same,AC50,[11]; [16],14.6 µM
"CCCCC(CC)CNCC(CC)CCCC (centres unmarked) [2,2'-Diethylhexylamine]",Luciferase IC50,[1],Inactive
same,CYP2C9 IC50,[3],Inactive
same,CYP3A4 IC50,[6],Inactive
same,IC50,[7]; CYP1A2 IC50,47.4 µM
same,IC50,[8]; CYP2C19 IC50,51.3 µM
same,IC50,[9]; CYP2D6 IC50,0.31 µM
"CC(Oc1cc(Cl)c(Cl)cc1Cl)C(=O)O (centres unmarked) [2-(2,4,5-Trichlorophenoxy)propionic acid]",CYP1A2 AC50 (half-maximal activity concentration),[2],Inactive
same,CYP2C19 AC50 (half-maximal activity concentration),[4],Inactive
same,CYP2D6 AC50 (half-maximal activity concentration),[5],Inactive
same,AC50,[10]; [15],28.4 µM
same,AC50,[11]; [16],76.9 µM
"O=C(O)c1cc(Cl)cc(Cl)c1O [3,5-Dichlorosalicylic acid]",CYP1A2 AC50 (half-maximal activity concentration),[2],Inconclusive inhibitor
same,CYP2C19 AC50 (half-maximal activity concentration),[4],Inactive
same,CYP2D6 AC50 (half-maximal activity concentration),[5],Inactive
same,AC50,[10],28.3 µM
same,AC50,[11],37 µM
CCN(CC)CCCN(c1ccccc1)C1Cc2ccccc2C1 [Aprindine hydrochloride],Luciferase IC50,[1],Inactive
same,CYP2C9 IC50,[3],Inactive
same,CYP3A4 IC50,[6],Inactive
same,IC50,[7]; CYP1A2 IC50,22.2 µM
same,IC50,[8]; CYP2C19 IC50,41.3 µM
same,IC50,[9]; CYP2D6 IC50,0.44 µM
c1ccc2c(c1)-c1cccc3c1c-2cc1ccccc13 [Benzo(b)fluoranthene],IC50,[1],5.37 µM
same,CYP2C9 IC50,[3],Inactive
same,CYP3A4 IC50,[6],Inactive
same,IC50,[7]; CYP1A2 IC50,0.69 µM
same,IC50,[8]; CYP2C19 IC50,10.5 µM
same,IC50,[9]; CYP2D6 IC50,30 µM
N#Cc1cc(Br)c(O)c(Br)c1 [Bromoxynil],CYP1A2 AC50 (half-maximal activity concentration),[2],Inactive
same,CYP2C19 AC50 (half-maximal activity concentration),[4],Inactive
same,CYP2D6 AC50 (half-maximal activity concentration),[5],Inactive
same,AC50,[10]; [15],18.7 µM
same,AC50,[11]; [16],29.6 µM
OC(c1ccc(Cl)cc1)(c1ccc(Cl)cc1)C(Cl)(Cl)Cl [Dicofol],Luciferase IC50 (half-maximal inhibitory concentration),[1],Inactive
same,CYP1A2 Efficacy (in parenthesis),[2],8.5 ± 4.94 (-106 ± 9) %
same,CYP2C9 Efficacy (in parenthesis),[3],4.89 ± 4.11 (-104 ± 9) %
same,CYP2C19 Efficacy (in parenthesis),[4],0.29 ± 0.44 (-153 ± 1) %
same,CYP2D6 Efficacy (in parenthesis),[5],44.8 ± 22.68 (-69 ± 14) %
same,CYP3A4 IC50 (half-maximal inhibitory concentration),[6],Inactive
same,IC50,[7]; [12],8.5 µM
same,IC50,[10],4.89 µM
same,IC50,[8]; [13],0.29 µM
same,IC50,[9]; [14],44.8 µM
CCCCc1cc2ccccc2c(OCCN(C)C)n1 [Dimethisoquin hydrochloride],Luciferase IC50 (half-maximal inhibitory concentration),[1],Inactive
same,CYP2C9 IC50 (half-maximal inhibitory concentration),[3],Inactive
same,CYP3A4 IC50 (half-maximal inhibitory concentration),[6],Inactive
same,IC50,[7],0.47 ± 0.03 µM
same,IC50,[8],39.2 ± 6.35 µM
same,IC50,[9],4.36 µM
CCn1ccnc1CC1COc2ccccc2O1 (centres unmarked) [Imiloxan],Luciferase IC50 (half-maximal inhibitory concentration),[1],Inactive
same,CYP2C9 IC50 (half-maximal inhibitory concentration),[3],Inactive
same,CYP3A4 IC50 (half-maximal inhibitory concentration),[6],Inactive
same,IC50,[7]; [12],25.3 µM
same,IC50,[8]; [13],4.42 µM
same,IC50,[9]; [14],0.69 µM
CN1[C@@H]2CC[C@H]1C[C@@H](OC(=O)c1cc(Cl)cc(Cl)c1)C2 [MDL 72222],Luciferase IC50 (half-maximal inhibitory concentration),[1],Inactive
same,CYP2C9 IC50 (half-maximal inhibitory concentration),[3],Inactive
same,CYP2C19 IC50 (half-maximal inhibitory concentration),[4],Inactive
same,CYP3A4 IC50 (half-maximal inhibitory concentration),[6],Inactive
same,IC50,[7]; [12],14.6 µM
same,IC50,[9]; [14],0.05 µM
CCCC(Cn1cncn1)c1ccc(Cl)cc1Cl (centres unmarked) [Penconazole],Luciferase IC50 (half-maximal inhibitory concentration),[1],Inactive
same,CYP1A2 Efficacy (in parenthesis),[2],23.57 ± 4.24 (-101 ± 7) %
same,CYP2C9 Efficacy (in parenthesis),[3],5.66 ± 0.65 (-101 ± 4) %
same,CYP2C19 Efficacy (in parenthesis),[4],0.14 ± 0.02 (-137 ± 5) %
same,CYP2D6 Efficacy (in parenthesis),[5],43.51 ± 17.21 (-88 ± 16) %
same,CYP3A4 IC50 (half-maximal inhibitory concentration),[6],Inactive
same,IC50,[7]; [12],23.6 µM
same,IC50,[10],5.66 µM
same,IC50,[8]; [13],0.14 µM
same,IC50,[9]; [14],43.5 µM
C[C@@H]1O[C@@H](O[C@@H]2C=C3CC[C@@H]4[C@H](CC[C@]5(C)[C@@H](c6ccc(=O)oc6)CC[C@]45O)[C@@]3(C)CC2)[C@H](O)[C@H](O)[C@H]1O [Proscillaridin],CYP1A2 AC50 (half-maximal activity concentration),[2],Inactive
same,CYP2C19 AC50 (half-maximal activity concentration),[4],Inconclusive activator
same,CYP2D6 AC50 (half-maximal activity concentration),[5],Inactive
same,AC50,[11]; [16],33.4 µM
COc1ccc(CN(CCN(C)C)c2ccccn2)cc1 [Pyrilamine maleate],Luciferase IC50 (half-maximal inhibitory concentration),[1],Inactive
same,CYP2C9 IC50 (half-maximal inhibitory concentration),[3],Inactive
same,CYP3A4 IC50 (half-maximal inhibitory concentration),[6],Inactive
same,IC50,[7]; [12],62.7 µM
same,IC50,[8]; [13],15.8 µM
same,IC50,[9]; [14],0.18 µM
CCN(CC)CCCC(C)Nc1c2ccc(Cl)cc2nc2ccc(OC)cc12 (centres unmarked) [Quinacrine],Luciferase IC50,[1],Inactive
same,CYP2C9 IC50,[3],Inactive
same,CYP2C19 IC50,[4],Inactive
same,CYP3A4 IC50,[6],Inactive
same,IC50,[7]; CYP1A2 IC50,2.2 µM
same,IC50,[9]; CYP2D6 IC50,0.18 µM
Fc1ccc(Oc2ccnc3cc(Cl)cc(Cl)c23)cc1 [Quinoxyfen],IC50,[1],59.2 µM
same,CYP1A2 Efficacy (in parenthesis),[2],0.53 ± 0.32 (-98 ± 2) %
same,CYP2C9 Efficacy (in parenthesis),[3],23.18 ± 7.46 (-103 ± 2) %
same,CYP2C19 Efficacy (in parenthesis),[4],13.35 ± 5.76 (-134 ± 20) %
same,CYP2D6 Efficacy (in parenthesis),[5],37.02 ± 2.51 (-71 ± 14) %
same,CYP3A4 IC50 (half-maximal inhibitory concentration),[6],Inactive
same,IC50,[7]; [12],0.53 µM
same,IC50,[10],23.2 µM
same,IC50,[8]; [13],13.3 µM
same,IC50,[9]; [14],37 µM
Cc1c(C(=O)NN2CCCCC2)nn(-c2ccc(Cl)cc2Cl)c1-c1ccc(Cl)cc1 [Rimonabant],CYP1A2 AC50 (half-maximal activity concentration),[2],Inactive
same,AC50,[11],4.96 ± 0.93 µM
O=S(=O)(c1ccc(Cl)cc1)c1cc(Cl)c(Cl)cc1Cl [Tetradifon],Luciferase IC50 (half-maximal inhibitory concentration),[1],Inactive
same,CYP1A2 Efficacy (in parenthesis),[2],31.85 ± 3.66 (-38 ± 3) %
same,CYP2C9 Efficacy (in parenthesis),[3],28.26 ± 0 (-59 ± 2) %
same,CYP2C19 Efficacy (in parenthesis),[4],0.27 ± 0.02 (-131 ± 10) %
same,CYP2D6 Efficacy (in parenthesis),[5],49.42 ± 19.58 (-34 ± 2) %
same,CYP3A4 IC50 (half-maximal inhibitory concentration),[6],Inactive
same,IC50,[7]; [12],31.9 µM
same,IC50,[10],28.3 µM
same,IC50,[8]; [13],0.27 µM
same,IC50,[9]; [14],49.4 µM
COc1ccc(CN(CCN(C)C)c2ncccn2)cc1 [Thonzylamine hydrochloride],Luciferase IC50 (half-maximal inhibitory concentration),[1],Inactive
same,CYP2C9 IC50 (half-maximal inhibitory concentration),[3],Inactive
same,CYP3A4 IC50 (half-maximal inhibitory concentration),[6],Inactive
same,IC50,[7]; [12],18.5 µM
same,IC50,[8]; [13],15.7 µM
same,IC50,[9]; [14],0.7 µM
CN(C)CCCN1c2ccccc2Sc2ccc(C(F)(F)F)cc21 [Triflupromazine hydrochloride],Luciferase IC50 (half-maximal inhibitory concentration),[1],Inactive
same,CYP2C9 IC50 (half-maximal inhibitory concentration),[3],Inactive
same,CYP3A4 IC50 (half-maximal inhibitory concentration),[6],Inactive
same,IC50,[7]; [12],3.52 µM
same,IC50,[8]; [13],7.62 µM
same,IC50,[9]; [14],0.55 µM
CN(C)CCN(Cc1ccccc1)c1ccccn1 [Tripelennamine citrate],Luciferase IC50 (half-maximal inhibitory concentration),[1],Inactive
same,CYP2C9 IC50 (half-maximal inhibitory concentration),[3],Inactive
same,CYP3A4 IC50 (half-maximal inhibitory concentration),[6],Inactive
same,IC50,[7]; [12],26.5 µM
same,IC50,[8]; [13],35.7 µM
same,IC50,[9]; [14],0.2 µM
"CC[C@H]1OC(=O)[C@H](C)[C@@H](O[C@H]2C[C@@](C)(OC)[C@@H](O)[C@H](C)O2)[C@H](C)[C@@H](O[C@@H]2O[C@H](C)C[C@H](N(C)C)[C@H]2O)[C@](C)(O)C[C@@H](C)C(=O)[C@H](C)[C@@H](O)[C@]1(C)O [erythromycin, reference compound]",IC50,[11]; IC50 CYP3A4 assay,0.3 µM
"Clc1ccc(C(c2ccc(Cl)cc2)C(Cl)Cl)cc1 [p,p'-DDD]",Luciferase IC50 (half-maximal inhibitory concentration),[1],Inactive
same,CYP1A2 Efficacy (in parenthesis),[2],6.46 ± 0.74 (-96 ± 1) %
same,CYP2C9 Efficacy (in parenthesis),[3],5.55 ± 0.76 (-100 ± 3) %
same,CYP2C19 Efficacy (in parenthesis),[4],0.12 ± 0.06 (-136 ± 7) %
same,CYP2D6 Efficacy (in parenthesis),[5],59 ± 16.44 (-79 ± 23) %
same,CYP3A4 IC50 (half-maximal inhibitory concentration),[6],Inactive
same,IC50,[7]; [12],6.46 µM
same,IC50,[10],5.55 µM
same,IC50,[8]; [13],0.12 µM
same,IC50,[9]; [14],59 µM
